Measured values reported in patent US6767887B1, “Exendin analogues, processes for their preparation and medicaments containing them” (Roche Diagnostics GmbH, priority 1999, dated 2004).
Where a SMILES comes first, the peptide text is derived from it. Where no end group is shown, it is not given here. [ ]: non-standard residue; d: D form. Nle = CCCC[C@H](N)C(=O)O

Key:
clonal B cell line INS-1 = experiment: Increase of cytosolic calcium concentration in INS-1 cells (Fura-2); assay type: cell-based; details: peptide 10^−8 M, 10 mM glucose
Experimental: Measurement of the Increase of the Cytosolic Calcium Concentration in B Cells of the Endocrine Pancreas (Clonal B Cell Line INS-1)
INS-1 cells are cultured in RPMI 1640 medium containing 10% FCS, 10 mM HEPES buffer (pH 7.4), 2 mM L-glutamine, 100 i.U. penicillin/ml, 100 μg streptomycine/ml, 1 mM pyruvate (sodium salt) and 50 μM 2-mercaptoethanol at 37° C. in an atmosphere of 95% air and 5% CO2. After 6 to 8 days growth on plastic cell culture plates, the subconfluent cells, after rinsing once with PBS (phosphate-buffered saline), are detached from the base by incubating for four minutes at 37° C. with 0.025% trypsin and 0.27 mM EDTA in isoosmotic saline solution
The detached cells are resuspended in Spinner medium (culture medium as above, but containing 5% FCS and 25 mM HEPES) and incubated for two and a half hours in a Spinner bottle with a stirrer bar. Afterwards the medium is removed by centrifugation and the cells are resuspended in Spinner medium. They are then incubated for 30 minutes at 37° C. with 2 μM Fura-2/acetoxymethyl ester under the same conditions as before. The Fura loading of the cells is terminated by washing the cells once Spinner medium (room temperature). Afterwards the cells are resuspended in spinner medium at room temperature (2×10^7 cells/ml). The cells are then removed from this suspension for calcium measurements.
The measurements are carried out at 37° C. in a modified Krebs-Ringer buffer (KRBH) containing 136 mM NaCl, 4.8 mM KCl, 2 mM CaCl2, 1.2 MM MgSO4, 1.2 mM KH2PO4, 5 mM NaNCO3, 10 mM glucose, 250 μM sulfinpyrazone (to inhibit the Fura-2 efflux into the medium) and 25 mM HEPES buffer (adjusted to pH 7.4 with NaOH). The cell concentration is 1-2×10^6/ml. The measurements are carried out in a cuvette stirred with a stirring bar in a spectrofluorimeter at 37° C. with 1.5 ml cell suspension. The excitation wavelength is 340 nm, the emission wavelength is 505 nm. At the end of the measurement 50 μM MnCl2 is added which is followed by 100 μm DTPA (diethylenetriamine pentaacetate) in order to determine the proportion of extracellular fluorescence indicator relative to the measured fluorescence by temporarily quenching the fluorescence of extracellular Fura. After the addition of DTPA the entire Fura is firstly converted into a calcium-saturated and then into a calcium-free state to determine the calibration values Fmax (calcium-saturated) and Fmin (calcium-free) for the respective measurement. For this purpose the cells are lysed by adding 0.1% Triton X-100. The dye is saturated with calcium by contact with the high extracellular calcium concentration. […]
The cytosolic calcium ion concentration is calculated according to the algorithm introduced by R. Tsien and colleagues (Grynkiewicz, G., 1985): […]

[1] = target: dipeptidyl peptidase IV (DDP-IV) (Homo sapiens, UniProt P27487)
Chain of dipeptidyl peptidase IV (DDP-IV) (P27487 whole entry): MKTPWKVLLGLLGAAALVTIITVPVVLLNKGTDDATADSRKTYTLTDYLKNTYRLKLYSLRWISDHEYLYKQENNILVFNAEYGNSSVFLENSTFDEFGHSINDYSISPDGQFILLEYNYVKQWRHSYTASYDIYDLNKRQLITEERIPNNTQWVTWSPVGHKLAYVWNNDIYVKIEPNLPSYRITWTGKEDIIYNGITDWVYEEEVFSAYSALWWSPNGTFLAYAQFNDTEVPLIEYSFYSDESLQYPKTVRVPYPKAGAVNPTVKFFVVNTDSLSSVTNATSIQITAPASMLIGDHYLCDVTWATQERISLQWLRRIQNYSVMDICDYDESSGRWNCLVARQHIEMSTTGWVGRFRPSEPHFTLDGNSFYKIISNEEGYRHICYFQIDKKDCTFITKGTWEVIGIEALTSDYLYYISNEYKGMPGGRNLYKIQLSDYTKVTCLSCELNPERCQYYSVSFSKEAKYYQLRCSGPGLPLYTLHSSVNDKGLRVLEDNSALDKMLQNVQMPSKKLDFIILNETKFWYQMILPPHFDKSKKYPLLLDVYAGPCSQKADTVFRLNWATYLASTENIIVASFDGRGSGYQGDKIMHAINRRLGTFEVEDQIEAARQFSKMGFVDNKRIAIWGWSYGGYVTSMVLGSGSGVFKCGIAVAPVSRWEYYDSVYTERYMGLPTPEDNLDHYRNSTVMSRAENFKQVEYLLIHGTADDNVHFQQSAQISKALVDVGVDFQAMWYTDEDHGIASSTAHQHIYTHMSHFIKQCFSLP
Experimental: Renal brush border microvilli membranes (BBM) are therefore a suitable source for the relevant ectopeptidases and can be used as an in vitro test for the metabolic stability of synthetic peptides. Alternatively it is possible to use ectopeptidase preparations.
(§1) Microvilli membranes (0.5-1 μg protein) or the respective ectopeptidase preparation (60-300 ng) were incubated with 10 μg peptide (about 3 nmol) in 100 μl HEPES buffer (50 mM, pH 7.4) which contained 50 mM NaCl. The reactions were terminated at predetermined times (duration up to 1 hour) by boiling. Subsequently the samples were centrifuged (10,000×g), diluted with 150 μl 0.1% TFA and analysed by means of reversed phase (RP) HPLC. Each sample was determined in duplicate.
A system with the following components was used for HPLC analysis: A 2248 low pressure pump (Pharmacia-LKB, Freiburg), a WISP 10B autoinjector (Millipore-Waters, Eschborn), a UV detector SP-4 (Gynkotec, Berlin), a low pressure mixing system (Pharmacia-LKB, Freiburg) and a program manager software control (Pharmacia-LKB, Freiburg). […] After injection of 244 μl of the sample solution onto a column equilibrated with the motile solvent A, the incubation products were eluted with a linear gradient of 0% to 80% B in 80 min and detected at 215 nm UV absorption. […]

[2] = test system: brush border microvilli membranes (BBM); details: pH 7.4
Experimental: Renal brush border microvilli membranes (BBM) are therefore a suitable source for the relevant ectopeptidases and can be used as an in vitro test for the metabolic stability of synthetic peptides.
Microvilli membranes of the rat and pig kidney cortex are isolated by means of subcellular fractionation using the differential centrifugation method (Booth and Kenny (1975)). 4 Brush border ectopeptidases are examined fluorimetrically and other marker enzymes are measured colorimetrically in order to assess the degree of purity and the yield of membranes.
as §1
A system with the following components was used for HPLC analysis: A 2248 low pressure pump (Pharmacia-LKB, Freiburg), a WISP 10B autoinjector (Millipore-Waters, Eschborn), a UV detector SP-4 (Gynkotec, Berlin), a low pressure mixing system (Pharmacia-LKB, Freiburg) and a program manager software control (Pharmacia-LKB, Freiburg). […]

isolated islet cells = experiment: Insulin release from isolated islets; assay type: cell-based, mice
Experimental: The abdomen of anaesthetised (0.3-0.5 ml nembutal/isotonic saline solution 1:4 i.p.) mice is opened by a median incision and two side incisions, the peritoneum is immobilized and cut open at the costal arch along the diaphragm. All organs are inflated and stained red by injection of a neutral red solution into the left ventricle. The pancreas is carefully removed along the stomach and duodenum up to the mesenteries. Until digestion the pancreas is placed in an ice-cooled petri dish in Hank's balanced salt solution (HBBS) and a few drops of neutral red.
Two pancreases are dabbed with cellulose, placed in a tube, 5 ml freshly prepared collagenase solution (collagenase (Cl. histolyticum) 0.74 U/mg, Serva, 2 mg/ml in HBBS/water 1:9, pH 7.4) is added and they are incubated for 18 minutes at 37° C. while shaking. Subsequently a centrifugation is carried out at 1000 rpm for 1 minute. The supernatant is discarded, In a second digestion step 5 ml collagenase solution (1 mg/ml) is incubated for 4 minutes, shaken and undigested tissue is sedimented. The supernatant is decanted and the whole process is repeated four to five times. The supernatant is then centrifuged for 1 minute at 1000 rpm and the collagenase solution is discarded. The remaining pellet is shaken with ice-cold HBBS and sedimented for ca. 10 minutes on ice. This wash process is repeated for a further three times. The faint pink stained islets are picked out from the washed pellets under a stereoscopic magnifying glass and transferred to culture medium (100 ml RPMI 1640 (Gibco), 1 ml glutamine, 1 ml penicillin, 1 ml Cibrobay antibiotic (Bayer), 10 ml foetal calf serum, 2 ml Hepes buffer 1 M). In order to obtain the purest possible culture, the islets are picked two to three times and transferred to fresh culture medium.
The islet cells from the culture medium are distributed in Eppendorff vessels containing […] stimulation buffer (118 mM NaCl, 0.2 mM NaH^2PO^4, 0.565 mM MgCl^2, 1.25 mM CaCl^2, 4.1 mM KCl, 10 mM Hepes, 1% BSA, 3.3 mM glucose; pH 7.4) in a quantity of 10 islets per Eppendorff vessel and placed in an incubator for 1 hour at 37° C. Subsequently the peptides to be tested are added and filled up to […] with stimulation buffer and incubated for one hour at 37° C. The islets are centrifuged at 1000 rpm for 1 minute. The amount of […] is measured in the supernatant using an insulin-RIA (DPC Biermann, Nauheim). Each test substance was determined in quadruplicate.
Some exendin analogues were tested as described above on isolated islet cells for insulin secretory activity.
Insulin Release From Isolated Islets After 1 Hour [mIU/h/10 Islets] in the Presence of 10 mM Glucose: […]

## 10 (HGEGTFTSDLSKQMEEEAVRAFIEWLKAGR) [compound 10]
Clonal B cell line INS-1
  Δ[Ca^2+]cyt ± SD (n = 4): 69 ± 30 nM

## CCCC[C@H](NC(=O)[C@H](CCC(N)=O)NC(=O)[C@H](CCCCN)NC(=O)[C@H](CO)NC(=O)[C@H](CC(C)C)NC(=O)[C@H](CC(=O)O)NC(=O)[C@H](CO)NC(=O)[C@@H](NC(=O)[C@H](Cc1ccccc1)NC(=O)[C@@H](NC(=O)CNC(=O)[C@H](CC(=O)O)NC(=O)[C@H](C)NC(=O)[C@@H](N)Cc1c[nH]cn1)[C@@H](C)O)[C@@H](C)O)C(=O)N[C@@H](CCC(=O)O)C(=O)N[C@@H](CCC(=O)O)C(=O)N[C@@H](CCC(=O)O)C(=O)N[C@@H](C)C(=O)N[C@H](C(=O)N[C@@H](CCCNC(=N)N)C(=O)N[C@@H](CC(C)C)C(=O)N[C@@H](Cc1ccccc1)C(=O)N[C@H](C(=O)N[C@@H](CCC(=O)O)C(=O)N[C@@H](Cc1c[nH]c2ccccc12)C(=O)N[C@@H](CC(C)C)C(=O)N[C@@H](CCCCN)C(=O)N[C@@H](CC(N)=O)C(=O)NCC(=O)N[C@@H](CCCNC(=N)N)C(N)=O)[C@@H](C)CC)C(C)C [compound 78] (H-HADGTFTSDLSKQ[Nle]EEEAVRLFIEWLKNGR-NH2)
[1]
  Substrate for DDP-IV: no proteolysis

## CCCC[C@H](NC(=O)[C@H](CCC(N)=O)NC(=O)[C@H](CCCCN)NC(=O)[C@H](CO)NC(=O)[C@H](CC(C)C)NC(=O)[C@H](CC(=O)O)NC(=O)[C@H](CO)NC(=O)[C@@H](NC(=O)[C@H](Cc1ccccc1)NC(=O)[C@@H](NC(=O)CNC(=O)[C@H](CC(=O)O)NC(=O)[C@H](CCCCN)NC(=O)[C@@H](N)Cc1c[nH]cn1)[C@@H](C)O)[C@@H](C)O)C(=O)N[C@@H](CCC(=O)O)C(=O)N[C@@H](CCC(=O)O)C(=O)N[C@@H](CCC(=O)O)C(=O)N[C@@H](C)C(=O)N[C@H](C(=O)N[C@@H](CCCNC(=N)N)C(=O)N[C@@H](CC(C)C)C(=O)N[C@@H](Cc1ccccc1)C(=O)N[C@H](C(=O)N[C@@H](CCC(=O)O)C(=O)N[C@@H](Cc1c[nH]c2ccccc12)C(=O)N[C@@H](CC(C)C)C(=O)N[C@@H](CCCCN)C(=O)N[C@@H](CC(N)=O)C(=O)NCC(=O)N[C@@H](CCCNC(=N)N)C(N)=O)[C@@H](C)CC)C(C)C [compound 86] (H-HKDGTFTSDLSKQ[Nle]EEEAVRLFIEWLKNGR-NH2)
[2]
  Degradation rate: 2.05 ng peptide/min/mg BBM

## GLP-1-(7-36)-NH2 [GLP1-(7-36)-NH2, reference compound]
Isolated islet cells; peptide 10^−7, 10 mM glucose
  Insulin release from isolated islets after 1 hour: 53.52 mIU/h/10 Islets
Isolated islet cells; peptide 10^−8, 10 mM glucose
  Insulin release from isolated islets after 1 hour: 42.78 mIU/h/10 Islets
Isolated islet cells; peptide 10^−9, 10 mM glucose
  Insulin release from isolated islets after 1 hour: 29.99 mIU/h/10 Islets
Clonal B cell line INS-1
  Δ[Ca^2+]cyt ± SD (n = 4): 65 ± 10 nM

## [Ala^21, Arg^30]-exendin-4-(1-30)-NH2 [Seq. ID 8]
Clonal B cell line INS-1
  Δ[Ca^2+]cyt ± SD (n = 4): 64 ± 8 nM

## [H^2 Nle^14R^30]-Ex-3-(1-30)—NH2 (HHDGTFTSDLSKQ[Nle]EEEAVRLFIEWLKNGR-NH2; N-terminus assumed; SMILES CCCC[C@H](NC(=O)[C@H](CCC(N)=O)NC(=O)[C@H](CCCCN)NC(=O)[C@H](CO)NC(=O)[C@H](CC(C)C)NC(=O)[C@H](CC(=O)O)NC(=O)[C@H](CO)NC(=O)[C@@H](NC(=O)[C@H](Cc1ccccc1)NC(=O)[C@@H](NC(=O)CNC(=O)[C@H](CC(=O)O)NC(=O)[C@H](Cc1c[nH]cn1)NC(=O)[C@@H](N)Cc1c[nH]cn1)[C@@H](C)O)[C@@H](C)O)C(=O)N[C@@H](CCC(=O)O)C(=O)N[C@@H](CCC(=O)O)C(=O)N[C@@H](CCC(=O)O)C(=O)N[C@@H](C)C(=O)N[C@H](C(=O)N[C@@H](CCCNC(=N)N)C(=O)N[C@@H](CC(C)C)C(=O)N[C@@H](Cc1ccccc1)C(=O)N[C@H](C(=O)N[C@@H](CCC(=O)O)C(=O)N[C@@H](Cc1c[nH]c2ccccc12)C(=O)N[C@@H](CC(C)C)C(=O)N[C@@H](CCCCN)C(=O)N[C@@H](CC(N)=O)C(=O)NCC(=O)N[C@@H](CCCNC(=N)N)C(N)=O)[C@@H](C)CC)C(C)C) [Seq. ID 84]
Isolated islet cells; peptide 10^−7, 10 mM glucose
  Insulin release from isolated islets after 1 hour: 48.94 mIU/h/10 Islets
Isolated islet cells; peptide 10^−8, 10 mM glucose
  Insulin release from isolated islets after 1 hour: 41.72 mIU/h/10 Islets
Isolated islet cells; peptide 10^−9, 10 mM glucose
  Insulin release from isolated islets after 1 hour: 38.76 mIU/h/10 Islets
Isolated islet cells; peptide 10^−10, 10 mM glucose
  Insulin release from isolated islets after 1 hour: 35.05 mIU/h/10 Islets

## [Nle^14, Arg^30]-exendin-3-(1-30)-NH2 (HSDGTFTSDLSKQ[Nle]EEEAVRLFIEWLKNGR-NH2; N-terminus assumed; SMILES CCCC[C@H](NC(=O)[C@H](CCC(N)=O)NC(=O)[C@H](CCCCN)NC(=O)[C@H](CO)NC(=O)[C@H](CC(C)C)NC(=O)[C@H](CC(=O)O)NC(=O)[C@H](CO)NC(=O)[C@@H](NC(=O)[C@H](Cc1ccccc1)NC(=O)[C@@H](NC(=O)CNC(=O)[C@H](CC(=O)O)NC(=O)[C@H](CO)NC(=O)[C@@H](N)Cc1c[nH]cn1)[C@@H](C)O)[C@@H](C)O)C(=O)N[C@@H](CCC(=O)O)C(=O)N[C@@H](CCC(=O)O)C(=O)N[C@@H](CCC(=O)O)C(=O)N[C@@H](C)C(=O)N[C@H](C(=O)N[C@@H](CCCNC(=N)N)C(=O)N[C@@H](CC(C)C)C(=O)N[C@@H](Cc1ccccc1)C(=O)N[C@H](C(=O)N[C@@H](CCC(=O)O)C(=O)N[C@@H](Cc1c[nH]c2ccccc12)C(=O)N[C@@H](CC(C)C)C(=O)N[C@@H](CCCCN)C(=O)N[C@@H](CC(N)=O)C(=O)NCC(=O)N[C@@H](CCCNC(=N)N)C(N)=O)[C@@H](C)CC)C(C)C) [Seq. ID 5]
Clonal B cell line INS-1
  Δ[Ca^2+]cyt ± SD (n = 4): 63 ± 8 nM
